Series [1] has as its system healthy nu/nu mice. Description: in vivo. The conditions noted are these: 30 mg/kg IV; listed as clinically formulated paclitaxel. The procedure:
(§1) Mouse weight was recorded once daily until all animals in the cohort returned to, or surpassed, their weight on the day of injection. […] Two additional cohorts (6 mice, 3 per group) were treated with 15 mg/kg and 30 mg/kg of clinically formulated paclitaxel (a 6 mg/mL suspension in 1:1 ethanol:Cremophor EL®, diluted with 1×DPBS prior to injection).

Another series in a line: in vivo. The conditions noted are these: female, nu/nu, mouse, in vivo, iv. The protocol:
as §1

The test system of series [2] is healthy nu/nu mice. The conditions noted are these: suspension in 1:1 Cremophor EL to ethanol; literature; cited from earlier work.

With `CC(=O)O[C@H]1C(=O)[C@@]2(C)[C@H]([C@H](OC(=O)c3ccccc3)[C@]3(O)C[C@H](OC(=O)[C@H](O)[C@@H](NC(=O)c4ccccc4)c4ccccc4)C(C)=C1C3(C)C)[C@]1(OC(C)=O)CO[C@@H]1C[C@@H]2O` [PTX, paclitaxel], the lethality with healthy nu/nu mice [1] is 1 out of the 3 animals died within 30 minutes post-injection and also died within an hour of injection. Further, in “in vivo”, the LD50 (commonly the dose at which mortality reaches 50%) worked out at 30 mg/kg and the MTD is 15 mg/kg. Besides, in the series on healthy nu/nu mice [2], the “MTD in mice previously established” value is 10 to 30 mg/kg.

The values are drawn from patent US20180092845A1, “ENZYME-RESPONSIVE NANOPARTICLES” (THE REGENTS OF THE UNIVERSITY OF CALIFORNIA, priority 2015, published 2018).
